Read-outs that look alike come from different tables or passages of the source.

In experiment [1] the target is T1, Cbl-b (Homo sapiens, UniProt Q13191).
T1 construct: biotin (biotinylated protein)
In words: Cbl-b probe displacement HTRF binding assay. To be noted: 0.4 nM Cbl-b, 150 nM BODIPY probe. In outline:
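Binding IC50 from four-parameter fit of HTRF signal loss, normalised to DMSO (0%) and no-protein (100%) wells. Biotinylated Cbl-b 0.4 nM was preincubated 60 min with compound (20-point 1:2 dilution) before 15 min with 150 nM BODIPY probe; Tb-streptavidin detection.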

In experiment [2] the test system is Jurkat cells. In words: IL-2 secretion assay in Jurkat cells activated with CD3/CD28 T Cell Activator. It counts as cell-based. The following applies: Homo sapiens, 24 h, read-out: IL-2 Secretion (EC50). The gist of the method:
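Jurkat cells in Opti-MEM were preincubated 1 h at 37° C with compound (final 10 μM to 300 pM, 16-point 1:2 dilution), then activated with human CD3/CD28 T Cell Activator for 24 h at 37° C. Supernatant IL-2 measured by AlphaLISA; EC50 from 4-parameter logistic fit.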

Where [3] appears, read: Jurkat cells, CD3/CD28 T Cell Activator, IL-2 AlphaLISA.

T1 sequence (Q13191 whole entry, species assumed): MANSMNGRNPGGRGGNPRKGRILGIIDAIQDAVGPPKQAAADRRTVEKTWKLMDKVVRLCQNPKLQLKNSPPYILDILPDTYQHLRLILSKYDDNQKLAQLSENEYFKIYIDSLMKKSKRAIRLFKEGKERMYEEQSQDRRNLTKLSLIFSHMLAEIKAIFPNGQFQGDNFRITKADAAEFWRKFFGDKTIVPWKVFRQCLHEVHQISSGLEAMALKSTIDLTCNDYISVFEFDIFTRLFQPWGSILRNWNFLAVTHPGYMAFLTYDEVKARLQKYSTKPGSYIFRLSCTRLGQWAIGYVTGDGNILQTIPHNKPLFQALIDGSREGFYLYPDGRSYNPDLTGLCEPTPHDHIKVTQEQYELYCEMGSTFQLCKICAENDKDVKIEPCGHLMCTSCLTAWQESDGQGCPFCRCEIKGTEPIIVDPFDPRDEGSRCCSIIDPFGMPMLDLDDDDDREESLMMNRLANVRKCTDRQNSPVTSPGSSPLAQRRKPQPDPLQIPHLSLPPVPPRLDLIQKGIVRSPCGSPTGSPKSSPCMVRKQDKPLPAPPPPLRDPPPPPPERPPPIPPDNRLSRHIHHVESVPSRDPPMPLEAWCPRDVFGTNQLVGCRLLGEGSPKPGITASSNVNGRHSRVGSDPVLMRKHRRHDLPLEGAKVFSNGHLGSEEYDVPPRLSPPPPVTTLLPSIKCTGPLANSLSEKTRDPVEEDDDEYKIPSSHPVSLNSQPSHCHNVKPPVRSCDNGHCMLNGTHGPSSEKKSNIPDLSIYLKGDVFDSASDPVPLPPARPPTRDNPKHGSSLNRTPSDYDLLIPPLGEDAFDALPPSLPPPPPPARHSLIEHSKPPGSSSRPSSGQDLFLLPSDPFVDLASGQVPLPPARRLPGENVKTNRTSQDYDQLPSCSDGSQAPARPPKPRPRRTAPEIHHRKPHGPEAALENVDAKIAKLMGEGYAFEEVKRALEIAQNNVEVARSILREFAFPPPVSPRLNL

Compound `COCCNCc1cc(C(=O)Nc2cc(-c3ccc(F)cc3-n3cc(CF)nn3)cc(C3CC3)n2)c(=O)n(C2CC2)c1` [Example 73, 1-Cyclopropyl-N-[6-cyclopropyl-4-[4-fluoro-2-[4-(fluoromethyl)triazol-1-yl]phenyl]pyridin-2-yl]-5-[(2-methoxyethylamino)methyl]-2-oxopyridine-3-carboxamide] gave an IC50 in experiment [1] of 100 to 1000 nM. Besides, the EC50 in experiment [2] (setting [3]) lay within 1000 to 5000 nM.

Consider `Cc1ccnnc1-c1cc(F)ccc1-c1cc(NC(=O)c2cc(CN3CCO[C@H](C)C3)cn(C3CC3)c2=O)nc(C2CC2)c1` [Example 74, 1-cyclopropyl-N-[6-cyclopropyl-4-[4-fluoro-2-(4-methylpyridazin-3-yl)phenyl]pyridin-2-yl]-5-[[(2R)-2-methylmorpholin-4-yl]methyl]-2-oxopyridine-3-carboxamide], for which the IC50 in experiment [1] lay within 100 to 1000 nM. The EC50 in experiment [2] (setting [3]) fell in the range of 1000 to 5000 nM.

For `Cc1cccnc1-c1cc(C#N)ccc1-c1cc(NC(=O)c2cc(CN3CCO[C@H](C)C3)cn(C3CC3)c2=O)nc(C2CC2)c1` [Example 75, N-[4-[4-cyano-2-(3-methylpyridin-2-yl)phenyl]-6-cyclopropylpyridin-2-yl]-1-cyclopropyl-5-[[(2R)-2-methylmorpholin-4-yl]methyl]-2-oxopyridine-3-carboxamide], the half-maximal inhibitory concentration (IC50) in experiment [1] lay within 100 to 1000 nM. The EC50 in experiment [2] (setting [3]) is 1000 to 5000 nM.

Take `C[C@H]1CCCN(Cc2cc(C(=O)Nc3cccc(C4(c5nncn5C)CC(F)(F)C4)c3)c(=O)n(C3CC3)c2)C1` [Example 79, 1-cyclopropyl-N-[3-[3,3-difluoro-1-(4-methyl-1,2,4-triazol-3-yl)cyclobutyl]phenyl]-5-[[(3S)-3-methylpiperidin-1-yl]methyl]-2-oxopyridine-3-carboxamide]: the IC50 in experiment [1] lay within 100 to 1000 nM. The EC50 in experiment [2] (setting [3]) is 100 to 1000 nM.

In the case of `CO[C@H]1C[C@@](c2cccc(NC(=O)c3cc(CN4CCC[C@H](C)C4)cn(C4CC4)c3=O)c2)(c2nncn2C)C1` [Example 80, 1-cyclopropyl-N-[3-[3-methoxy-1-(4-methyl-1,2,4-triazol-3-yl)cyclobutyl]phenyl]-5-[[(3S)-3-methylpiperidin-1-yl]methyl]-2-oxopyridine-3-carboxamide], the IC50 in experiment [1] is 100 to 1000 nM. In addition, the EC50 in experiment [2] (setting [3]) was 100 to 1000 nM.

Compound `CO[C@H]1C[C@](c2cccc(NC(=O)c3cc(CN4CCC[C@H](C)C4)cn(C4CC4)c3=O)c2)(c2nncn2C)C1` [Example 81, 1-cyclopropyl-N-[3-[3-methoxy-1-(4-methyl-1,2,4-triazol-3-yl)cyclobutyl]phenyl]-5-[[(3S)-3-methylpiperidin-1-yl]methyl]-2-oxopyridine-3-carboxamide] gave an IC50 in experiment [1] of 100 to 1000 nM. In addition, in experiment [2] (setting [3]), the EC50 was in the range of 100 to 1000 nM.

Take `CO[C@@H](C)CNCc1cc(C(=O)Nc2cc(-c3ccc(C#N)cc3C(=O)N3CC(F)(F)C3)cc(C3CC3)n2)c(=O)n(C2CC2)c1` [Example 95, N-(4-{4-cyano-2-[(3,3-difluoro-1-azetidinyl)carbonyl]phenyl}-6-cyclopropyl-2-pyridyl)-5-{[(S)-2-methoxypropylamino]methyl}-1-cyclopropyl-2-oxo-1,2-dihydronicotinamide]: the IC50 in experiment [1] was < 100 nM. Moreover, the EC50 in experiment [2] (setting [3]) is < 100 nM.

For the compound `CO[C@@H](C)CNCc1cc(C(=O)Nc2cc(-c3c(F)cc(Cl)cc3C(=O)N3CC(F)(F)C3)cc(C3CC3)n2)c(=O)n(C2CC2)c1` [Example 102, N-[4-[4-chloro-2-(3,3-difluoroazetidine-1-carbonyl)-6-fluorophenyl]-6-cyclopropylpyridin-2-yl]-1-cyclopropyl-5-[[[(2S)-2-methoxypropyl]amino]methyl]-2-oxopyridine-3-carboxamide], the IC50 in experiment [1] was < 100 nM. In addition, the EC50 in experiment [2] (setting [3]) is < 100 nM.

With `CO[C@@H](C)CNCc1cc(C(=O)Nc2cc(-c3ccc(Cl)cc3C(=O)N3CC(F)(F)C3)cc(C3CC3)n2)c(=O)n(C)c1` [Example 105, N-[4-[4-chloro-2-(3,3-difluoroazetidine-1-carbonyl)phenyl]-6-cyclopropylpyridin-2-yl]-5-[[[(2S)-2-methoxypropyl]amino]methyl]-1-methyl-2-oxopyridine-3-carboxamide], in experiment [1], the IC50 was < 100 nM. Moreover, the EC50 in experiment [2] (setting [3]) was < 100 nM.

As to `CC(C)CNCc1cc(C(=O)Nc2cc(-c3ccc(Cl)cc3C(=O)N3CC(F)(F)C3)cc(C3CC3)n2)c(=O)n(C)c1` [Example 106, N-[4-[4-chloro-2-(3,3-difluoroazetidine-1-carbonyl)phenyl]-6-cyclopropylpyridin-2-yl]-1-methyl-5-[(2-methylpropylamino)methyl]-2-oxopyridine-3-carboxamide], the IC50 in experiment [1] was < 100 nM. Moreover, the EC50 in experiment [2] (setting [3]) was < 100 nM.

As to `Cn1cc(CNC[C@@H]2CCCO2)cc(C(=O)Nc2cc(-c3ccc(Cl)cc3C(=O)N3CC(F)(F)C3)cc(C3CC3)n2)c1=O` [Example 107, N-[4-[4-chloro-2-(3,3-difluoroazetidine-1-carbonyl)phenyl]-6-cyclopropylpyridin-2-yl]-1-methyl-2-oxo-5-[[[(2S)-oxolan-2-yl]methylamino]methyl]pyridine-3-carboxamide], the IC50 in experiment [1] is < 100 nM. In experiment [2] (setting [3]), the EC50 was < 100 nM.

Turning to `CC(C)CNCc1cc(C(=O)Nc2cc(-c3c(F)cc(Cl)cc3C(=O)N3CC(F)(F)C3)cc(C3CC3)n2)c(=O)n(C2CC2)c1` [Example 144, N-(4-{4-chloro-2-[(3,3-difluoro-1-azetidinyl)carbonyl]-6-fluorophenyl}-6-cyclopropyl-2-pyridyl)-1-cyclopropyl-5-[(isobutylamino)methyl]-2-oxo-1,2-dihydronicotinamide], the IC50 in experiment [1] was < 100 nM. Moreover, the EC50 in experiment [2] (Jurkat) was < 100 nM.

As for `CO[C@H]1CCC[C@@H]1NCc1cc(C(=O)Nc2cc(-c3ccc(C#N)cc3C(=O)N3CC(F)(F)C3)cc(C3CC3)n2)c(=O)n(CC(F)(F)F)c1` [Example 154, N-[4-[4-cyano-2-(3,3-difluoroazetidine-1-carbonyl)phenyl]-6-cyclopropylpyridin-2-yl]-5-[[[(1S,2S)-2-methoxycyclopentyl]amino]methyl]-2-oxo-1-(2,2,2-trifluoroethyl)pyridine-3-carboxamide], the IC50 in experiment [1] was < 100 nM. The EC50 in experiment [2] (setting [3]) was < 100 nM.
